Results from paper PMC10999543, “Identification of kinase modulators as host-directed therapeutics against intracellular methicillin-resistant Staphylococcus aureus” (Frontiers in Cellular and Infection Microbiology, 2024).
Where two headings read alike, the source gives them in different places.

Key:
intracellular MRSA = type: cell-based, Staphylococcus aureus; conditions: for %GFP+ rep 1 / z-scoreMRSA+ rep 1: replicate 1; for %GFP+ rep 2 / z-scoreMRSA+ rep 2: replicate 2; for %GFP+ rep 3 / z-scoreMRSA+ rep 3: replicate 3; for z-scoreMRSA+ mean: mean of 3 replicates; as to %GFP+ rep 1: test concentration or dose not given here; as to %GFP+ rep 2: test concentration or dose not given here; as to %GFP+ rep 3: test concentration or dose not given here; as to effect: test concentration or dose not given here; as to z-scoreMRSA+ mean: test concentration or dose not given here; as to z-scoreMRSA+ rep 1: test concentration or dose not given here; as to z-scoreMRSA+ rep 2: test concentration or dose not given here; as to z-scoreMRSA+ rep 3: test concentration or dose not given here
Procedure, shortened: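 Values are z-scores: GFP-positive HeLa percentage and event count per well against plate statistics, minus the mean DMSO z-score. Wells deviating two-fold from controls were left out of plate means. Infection was at a mean MOI of 6.8, with an overnight compound exposure.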

HeLa cells = assay: Compound screen by flow cytometry: HeLa cell count as surrogate readout of cell viability (z-scoreHeLa); type: cell-based, human; also: test concentration or dose not given here
Procedure, shortened: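 The viability surrogate was the count of fixed HeLa cells by flow cytometry, converted to z-scores against DMSO controls with values deviating two-fold excluded. Before counting, cells had been infected with MRSA for 1 h and cleared of extracellular bacteria with gentamicin. They were then exposed overnight to kinase inhibitors in triplicate.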

[1] = PKIS compound screen raw data, MRSA-infected HeLa cells
[2] = Yes/No: effect without cell death
[3] = compound screen, MRSA-infected HeLa cells
[4] = PKIS compound screen, Yes/No call
[5] = PKIS compound screen, Yes/No call (effect without cell death)
[6] = PKIS compounds raw data, MRSA-infected HeLa cells
[7] = PKIS compound screen, mean of 3 replicates
[8] = PKIS compound screen, replicate 1
[9] = PKIS compound screen, replicate 2
[10] = PKIS compound screen, replicate 3
[11] = PKIS compounds raw data, replicate 1, HeLa cell count
[12] = PKIS compounds raw data, replicate 2, HeLa cell count
[13] = PKIS compounds raw data, replicate 3, HeLa cell count
[14] = PKIS compound screen, MRSA-infected HeLa cells
[15] = PKIS compound screen, Yes/No call on z-scoreMRSA+
[16] = PKIS compound screen raw data, HeLa cell count, replicate 1
[17] = PKIS compound screen raw data, HeLa cell count, replicate 2
[18] = PKIS compound screen raw data, HeLa cell count, replicate 3
[19] = PKIS compound screen, HeLa cell count, mean of 3 replicates
[20] = PKIS compound screen, HeLa cell count, replicate 1
[21] = PKIS compound screen, HeLa cell count, replicate 2
[22] = PKIS compound screen, HeLa cell count, replicate 3
[23] = PKIS compound screen, Yes/No call on z-scoreHeLa
[24] = compound screen, HeLa cell count, mean of 3 replicates
[25] = compound screen, HeLa cell count, replicate 1
[26] = compound screen, HeLa cell count, replicate 2
[27] = compound screen, HeLa cell count, replicate 3

Compound	%GFP+ rep 1 (intracellular MRSA; [1])	%GFP+ rep 2 (intracellular MRSA; [1])	%GFP+ rep 3 (intracellular MRSA; [1])	effect (intracellular MRSA; [4])	hit (intracellular MRSA; [5])	z-scoreMRSA+ mean (intracellular MRSA; PKIS compound screen)	z-scoreMRSA+ rep 1 (intracellular MRSA; PKIS compound screen)	z-scoreMRSA+ rep 2 (intracellular MRSA; PKIS compound screen)	z-scoreMRSA+ rep 3 (intracellular MRSA; PKIS compound screen)	%GFP+ rep 1 (intracellular MRSA; [6])	%GFP+ rep 2 (intracellular MRSA; [6])	%GFP+ rep 3 (intracellular MRSA; [6])	cell death (HeLa cells; [4])	z-scoreHeLa mean (HeLa cells; [7])	z-scoreHeLa rep 1 (HeLa cells; [8])	z-scoreHeLa rep 2 (HeLa cells; [9])	z-scoreHeLa rep 3 (HeLa cells; [10])	cell count rep 1 (HeLa cells; [11])	cell count rep 2 (HeLa cells; [12])	cell count rep 3 (HeLa cells; [13])	other results
CCN(CC)CCOc1ccc(Nc2ncc3cc(-c4c(Cl)cccc4Cl)c(=O)n(C)c3n2)cc1 [SB-601273]	32.3%	28.1%	25.0%	–	–	–	–	–	–	–	–	–	–	–	–	–	–	–	–	–	effect (intracellular MRSA; Yes/No call from z-scoreMRSA+): No; hit (intracellular MRSA; [2]): No; z-scoreMRSA+ mean (intracellular MRSA; [3]): 1.27; z-scoreMRSA+ rep 1 (intracellular MRSA; [3]): 1.64; z-scoreMRSA+ rep 2 (intracellular MRSA; [3]): 1.33; z-scoreMRSA+ rep 3 (intracellular MRSA; [3]): 0.84; cell death (HeLa cells): No; cell count rep 1 (HeLa cells; human): 895; cell count rep 2 (HeLa cells; human): 949; cell count rep 3 (HeLa cells; human): 1208; z-scoreHeLa mean (HeLa cells; human): -2.54; z-scoreHeLa rep 1 (HeLa cells; human): -2.49; z-scoreHeLa rep 2 (HeLa cells; human): -2.58; z-scoreHeLa rep 3 (HeLa cells; human): -2.55
Cc1cccc(-c2nc(Nc3ccc4ncsc4c3)c3ccccc3n2)n1 [GW867588X]	–	–	–	No	No	0.0377	-0.25	0.22	0.14	25.8%	27.2%	28.0%	No	1.67	1.09	1.64	2.28	7867	8486	9199	–
c1ccc(Oc2ccc(Nc3ccnc4cc(-c5ccc(CN6CCNCC6)o5)ccc34)cc2)nc1 [GW567142A]	18.2%	19.4%	17.4%	–	No	–	–	–	–	–	–	–	–	–	–	–	–	–	–	–	z-scoreMRSA+ mean (intracellular MRSA; [14]): -0.40; z-scoreMRSA+ rep 1 (intracellular MRSA; [14]): -0.15; z-scoreMRSA+ rep 2 (intracellular MRSA; [14]): -0.00228; z-scoreMRSA+ rep 3 (intracellular MRSA; [14]): -1.05; effect (intracellular MRSA; [15]): No; cell count rep 1 (HeLa cells; [16]): 37910; cell count rep 2 (HeLa cells; [17]): 29813; cell count rep 3 (HeLa cells; [18]): 27656; z-scoreHeLa mean (HeLa cells; [19]): 1.26; z-scoreHeLa rep 1 (HeLa cells; [20]): 1.31; z-scoreHeLa rep 2 (HeLa cells; [21]): 0.78; z-scoreHeLa rep 3 (HeLa cells; [22]): 1.70; cell death (HeLa cells; [23]): No
Cc1n[nH]c2cc(Nc3ccnc(Nc4cccc(CN5CCOCC5)c4)n3)ccc12 [GW682569X]	–	–	–	–	–	–	–	–	–	15.4%	15.0%	13.7%	–	–	–	–	–	2071	1754	4807	effect (intracellular MRSA; Yes/No call from z-scoreMRSA+): No; hit (intracellular MRSA; [2]): No; z-scoreMRSA+ mean (intracellular MRSA; [3]): 0.19; z-scoreMRSA+ rep 1 (intracellular MRSA; [3]): 0.71; z-scoreMRSA+ rep 2 (intracellular MRSA; [3]): 0.50; z-scoreMRSA+ rep 3 (intracellular MRSA; [3]): -0.65; cell death (HeLa cells; Yes/No call from z-scoreHeLa): No; z-scoreHeLa mean (HeLa cells; [24]): -1.79; z-scoreHeLa rep 1 (HeLa cells; [25]): -2.45; z-scoreHeLa rep 2 (HeLa cells; [26]): -1.90; z-scoreHeLa rep 3 (HeLa cells; [27]): -1.03
COC(=O)c1ccc2c(c1)C(=Cc1cc(Br)c(O)c(Br)c1)C(=O)N2 [GW405841X]	–	–	–	No	No	-0.17	0.00934	0.0349	-0.56	13.2%	13.6%	14.0%	No	1.55	0.63	2.17	1.84	5478	7140	10804	–
CS(=O)(=O)Cc1ccc(Nc2nccc(-c3c(-c4cccc(NC(=O)C5CCCCC5)c4)nn4ncccc34)n2)cc1 [GSK350559A]	15.3%	15.9%	16.3%	–	–	–	–	–	–	–	–	–	–	–	–	–	–	–	–	–	effect (intracellular MRSA; Yes/No call from z-scoreMRSA+): No; hit (intracellular MRSA; [2]): No; z-scoreMRSA+ mean (intracellular MRSA; [3]): -1.91; z-scoreMRSA+ rep 1 (intracellular MRSA; [3]): -2.32; z-scoreMRSA+ rep 2 (intracellular MRSA; [3]): -1.63; z-scoreMRSA+ rep 3 (intracellular MRSA; [3]): -1.77; cell count rep 1 (HeLa cells; [16]): 4919; cell count rep 2 (HeLa cells; [17]): 4109; cell count rep 3 (HeLa cells; [18]): 4941; cell death (HeLa cells; Yes/No call from z-scoreHeLa): No; z-scoreHeLa mean (HeLa cells; [24]): 0.0244; z-scoreHeLa rep 1 (HeLa cells; [25]): 0.41; z-scoreHeLa rep 2 (HeLa cells; [26]): -0.15; z-scoreHeLa rep 3 (HeLa cells; [27]): -0.19
CN1C(=O)C(Nc2ccccc2)=C(c2ccccc2)C1=O [SB-300079]	–	–	–	No	No	-0.64	-0.99	-0.37	-0.55	22.0%	24.1%	24.3%	No	0.41	-0.31	0.70	0.83	5536	7057	6914	–
Cc1cccc(Cn2ccn3c(=O)cc(N4CCOCC4)nc23)c1 [GSK2297542A]	14.5%	15.7%	16.8%	No	No	-0.44	-0.63	-0.16	-0.51	23.8%	25.2%	24.5%	No	0.56	0.45	0.33	0.91	6792	6500	7025	z-scoreMRSA+ mean (intracellular MRSA; [14]): -1.12; z-scoreMRSA+ rep 1 (intracellular MRSA; [14]): -1.14; z-scoreMRSA+ rep 2 (intracellular MRSA; [14]): -1.01; z-scoreMRSA+ rep 3 (intracellular MRSA; [14]): -1.21; effect (intracellular MRSA; [15]): No; cell count rep 1 (HeLa cells; [16]): 36714; cell count rep 2 (HeLa cells; [17]): 30989; cell count rep 3 (HeLa cells; [18]): 25952; z-scoreHeLa mean (HeLa cells; [19]): 1.15; z-scoreHeLa rep 1 (HeLa cells; [20]): 1.10; z-scoreHeLa rep 2 (HeLa cells; [21]): 0.98; z-scoreHeLa rep 3 (HeLa cells; [22]): 1.37; cell death (HeLa cells; [23]): No
